Experimental data from patent US4952704A, “Bis-(pyrrolidonyl alkylene) biguanides” (GAF Chemicals Corporation, priority 1989, dated 1990).
In brackets after ≈: the same amount, converted by molar mass. Like-named read-outs stand apart in the source and are kept apart here.

How the values were obtained:
bacteria = details: cited from earlier work
bacterial spores = details: room temperature; cited from earlier work
[1] = Solubility in Water (Table 1); assay type: physicochemical
Text: The results in Table I below illustrates the water solubility of the free base and hydrochloride salts of the invention versus chlorhexidine.

[2] = cited from earlier work
[3] = cited from earlier work; remark: listed apart in the source
E. Coli = assay: Minimum inhibitory concentration, E. Coli (Gram negative); assay type: cell-based; details: Escherichia coli
Method: (§1) The minimum inhibitory concentrations (MIC) against different Gram positive and Gram negative microorganisms, and fungi, were determined and the results are shown in Table 2 below.

Fungi = assay: Minimum inhibitory concentration, Fungi; assay type: cell-based
Method: as §1

Ps. aer. = assay: Minimum inhibitory concentration, Ps. aer. (Gram negative); assay type: cell-based
Method: as §1

Staph. aur. = assay: Minimum inhibitory concentration, Staph. aur. (Gram positive); assay type: cell-based
Method: as §1

Strept. py. = assay: Minimum inhibitory concentration, Strept. py. (Gram positive); assay type: cell-based
Method: as §1

[4] = HCl salt, pH 5.5, read-out: Solubility in water, HCl Salt (pH 5.5)
[5] = free base, pH 8.5, read-out: Solubility in water, Free Base (pH 8.5)

For `[H]/N=C(\N/C(=N/[H])NCCCCCCNC(=N)NC(=N)Nc1ccc(Cl)cc1)Nc1ccc(Cl)cc1` [Chlorhexidine, 1,6-bis(4-chlorophenylbiguanido)-hexane], the “antibacterial activity at low pH” value (bacteria; pH below 5) is listed as “deteriorates”, the “antibacterial activity, pH dependence” value (bacteria; pH range 5-8) is listed as “pH dependent” and the “activity against bacterial spores” value (bacterial spores) is listed as “inactivity against bacterial spores”. The solubility [1, 4] was 18 mg/mL, the solubility [1, 5] was 0.08 mg/mL (≈ 158 µM) and the “compatibility in formulations containing surface active agents” value [2] was “incompatability”. For the same compound, the “water solubility for the free base” value [3] was “low water solubility”.

In the case of `N=C(NCCOCCOCCNC(=N)NC(=N)NCCN1CCCC1=O)NC(=N)NCCN1CCCC1=O` [Ex. 6, 1,2-Bis[1-(2-pyrrolidonylethyl)-5-(2-Ethoxybiguanido)]ethane:2HCl], the MIC (E. Coli) is reported as 100 µg/mL, the MIC (Fungi) is reported as ≤ 50 µg/mL and the MIC (Ps. aer.) is reported as ≤ 100 µg/mL. For the same compound, the MIC (Staph. aur.) was > 500 µg/mL, the MIC (Strept. py.) was ≤ 50 µg/mL and the solubility [1, 4] was 500 mg/mL. It also gave a solubility [1, 5] of 500 mg/mL.

With `N=C(NCCCCCCNC(=N)NC(=N)Nc1ccc(Cl)cc1)NC(=N)Nc1ccc(Cl)cc1` [Chlorhexidine gluconate, reference compound] the MIC (E. Coli) was 5 µg/mL, the MIC (Fungi) was > 200 µg/mL and the MIC (Ps. aer.) was 50 µg/mL. It also gave an MIC (Staph. aur.) of 2.5 µg/mL and an MIC (Strept. py.) of 5 µg/mL.

With `N=C(NCCCCCCCCCCCCNC(=N)NC(=N)NCCN1CCCC1=O)NC(=N)NCCN1CCCC1=O` [Ex. 5, 1,12-Bis[1-(2-Pyrrolidonylethyl)biguanido]dodecane:2HCl] the MIC (E. Coli) was 250 µg/mL, the MIC (Fungi) was ≤ 50 µg/mL and the MIC (Ps. aer.) was > 500 µg/mL. For the same compound, the MIC (Staph. aur.) was ≤ 50 µg/mL, the MIC (Strept. py.) was ≤ 50 µg/mL and the solubility [1, 4] was 500 mg/mL. For the same compound, the solubility [1, 5] was 20 mg/mL.

`N=C(NCCCCCCNC(=N)NC(=N)NCCN1CCCC1=O)NC(=N)NCCN1CCCC1=O` [Ex. 4, 1,6-Bis[1-(2-Pyrrolidonylethyl)biguanido]hexane:2HCl] showed an MIC (E. Coli) of 250 µg/mL, an MIC (Fungi) of 100 µg/mL and an MIC (Ps. aer.) of 250 µg/mL. The MIC (Staph. aur.) was ≤ 100 µg/mL, the MIC (Strept. py.) was ≤ 50 µg/mL and the solubility [1, 4] was 500 mg/mL. For the same compound, the solubility [1, 5] was 50 mg/mL.
